This experiment relates to E. coli. Briefly: Disinfection of E. coli-infected surfaces, SYTO9/PI confocal fluorescence microscopy. Conditions: on stainless steel, plastic and spinach leaf, 20 min treatment. The class given is cell-based. How it is done: The efficacy of AquaROS as a disinfectant for reducing pathogen concentration was tested with three different surfaces infected with E. coli: stainless steel, plastic, and spinach leaf (cut from a single leaf as 1-cm×1-cm squares and washed 3× with distilled water and dried ambiently prior to E. coli deposition). For these experiments, E. coli was cultured in LB broth at 37° C. for approximately 16 hours. Using sterilized LB broth, the E. coli suspension was diluted to a concentration of 4.5×10^8 cells/mL, using a UV-vis spectrophotometer to monitor absorption at 600 nm. Infection of each surface was achieved by deposition of 10 μL of 4.5×10^8 cell/mL E. coli suspension followed by drying in a desiccator for approximately 10 min. AquaROS was applied by spraying pure water at 120 psi and at a height of 1.5 cm from the E. coli surface with a 10 μl/min flow rate for 20 min (FIG. 6). Control samples were treated by depositing 100 μL of 3% H2O2 and allowing it to react for 20 min at room temperature. Following treatment with AquaROS spray and 3% H2O2, 1 mL PBS 1× (pH 7.4) was added to the glass vial containing the treated material, swirled, then pipetted into a 1-mL Eppendorf tube. […]
FIG. 7 is a plot of E. coli death by AquaROS spray on the different surfaces compared to 3% H2O2. Cell death data were acquired by confocal fluorescence microscopy of each sample placed on a glass slide. […]

The results in this text go back to patent publication US20220105218A1, “METHODS AND SYSTEMS FOR REDUCING A PATHOGEN POPULATION” (The Board of Trustees of the Leland Standford Junior …, priority 2019, published 2022).

Consider `OO` [3% H2O2, hydrogen peroxide], for which the E. coli death result was “approximately 60%”.
